According to paper PMC10712727, “Safety, Tolerability, and Pharmacokinetics of Senaparib, a Novel PARP1/2 Inhibitor, in Chinese Patients With Advanced Solid Tumors: A Phase I Trial” (The Oncologist, 2023):

System: patients with advanced solid tumors
Experiment: Safety: treatment-emergent and senaparib-related adverse events graded per NCI CTCAE v4.03
Assay type: in vivo
Settings: TEAE
Method: This phase I, open-label, multicenter, dose-escalation, and dose-expansion study was conducted at three national clinical institutions in China. […] At baseline, all patients enrolled in the dose-escalation phase had to have at least one evaluable lesion, and those in the dose-expansion period had to have at least one measurable lesion, according to Response Evaluation Criteria in Solid Tumors version 1.1 (RECIST v1.1).[16] Entry to the dose-expansion cohort required the presence of a BRCA mutation, with the exception of patients with ovarian carcinoma, fallopian tube carcinoma, and primary peritoneal carcinoma. Full study eligibility criteria are provided in Supplementary Table S1.
Dose escalation was conducted using a modified Fibonacci 3 + 3 method (Supplementary Fig. S1).[17] Patients were administered oral senaparib from a planned starting dose of 2 mg once daily (QD), with preliminary dose escalation to 120 mg via nine dose groups, in order of their entry into the study. At a given dose level, each patient received a single dose of senaparib followed by a 7-day washout period. They then entered a continuous dosing period to confirm the safety and PK profile, in which they received senaparib QD from day 1 to day 21 of each 3-week cycle. Progression to the next higher dose required approval from the Data Safety Monitoring Committee (DSMC) upon review of the safety and PK data of the previous dose. A 50-mg twice-daily (BID) dosing group was added (planned enrollment, n = 6 patients) based on a DSMC review of the safety, PK, and efficacy analysis of the completed QD dose groups in the phase I clinical trial of senaparib dose escalation in Australia (NCT03507543), which commenced prior to the start of this trial.
The dose-expansion period included 3 populations: dose groups in which at least one patient achieved complete response (CR) or partial response (PR) per RECIST v1.1[16] and 1 dose group higher (evaluated for safety), as well as the dose group at the maximum tolerated dose (MTD)/recommended phase II dose (RP2D). Each of these groups included those patients in the respective dose-escalation group plus a planned additional 10 patients (approximately 20 patients in the MTD/RP2D group) with BRCA^mut+ solid tumors (ovarian, breast, or prostate cancer were preferred, and ovarian cancer could be BRCA wild type). Patients received senaparib monotherapy orally QD or BID (50-mg dose only) over each 3-week cycle until disease progression or unacceptable toxicity.
DLTs were predefined toxicities (Supplementary Table S2) recorded over the 7 days following the single-dose administration of senaparib and during the first treatment cycle (day 1-day 21) for each dose group in the dose-escalation period only. The MTD was defined as the maximum dose at which ≤1/6 patients experienced a DLT. Senaparib PK parameters were derived from blood samples collected from patients after the single administration, and at regular intervals during the first cycle of the dose-escalation and dose-expansion periods. Plasma concentrations of senaparib were determined using high-performance liquid chromatography-tandem mass spectrometry. Tumor response was assessed every 6 weeks per RECIST v1.1,[16] recording objective response rate (ORR), disease control rate (DCR), duration of response (DOR), and progression-free survival (PFS) by dose level for all patients and for those harboring BRCA^mut+ tumors.

O=C(c1cc(Cn2c(=O)[nH]c(=O)c3c(F)cccc32)ccc1F)N1CCN(c2ncccn2)CC1 [Senaparib]
3 (15.0) n (%): Blood bilirubin increased, All (100 mg QD n = 20)
5 (55.6) n (%): WBC decreased, All (80 mg QD n = 9)
1 (11.1) n (%): ALT increased, All (80 mg QD n = 9) | Hyponatremia, All (80 mg QD n = 9) | Neutrophil count decreased, Gr≥3 (80 mg QD n = 9) | Vomiting, Gr≥3 (80 mg QD n = 9) | WBC decreased, Gr≥3 (80 mg QD n = 9)
6 (30.0) n (%): Platelet count decreased, All (100 mg QD n = 20)
11 (55.0) n (%): Anemia (incl. hemoglobin decreased), All (100 mg QD n = 20)
7 (77.8) n (%): Anemia (incl. hemoglobin decreased), All (80 mg QD n = 9)
1 (20.0) n (%): Blood creatinine increased, All (60 mg QD n = 5) | Hypokalemia, All (60 mg QD n = 5) | Hyponatremia, All (60 mg QD n = 5) | Nausea, All (60 mg QD n = 5) | Neutrophil count decreased, All (60 mg QD n = 5) | Protein in urine, All (60 mg QD n = 5) | Vomiting, All (60 mg QD n = 5) | Vomiting, Gr≥3 (60 mg QD n = 5)
5 (25.0) n (%): ALT increased, All (100 mg QD n = 20) | Appetite decreased, All (100 mg QD n = 20) | Asthenia, All (100 mg QD n = 20) | Neutrophil count decreased, All (100 mg QD n = 20) | Vomiting, All (100 mg QD n = 20)
4 (20.0) n (%): AST increased, All (100 mg QD n = 20) | Anemia (incl. hemoglobin decreased), Gr≥3 (100 mg QD n = 20) | Nausea, All (100 mg QD n = 20)
3 (33.3) n (%): Abdominal distension, All (80 mg QD n = 9) | Anemia (incl. hemoglobin decreased), Gr≥3 (80 mg QD n = 9) | Appetite decreased, All (80 mg QD n = 9) | Hypokalemia, All (80 mg QD n = 9) | Vomiting, All (80 mg QD n = 9)
0 n (%): Asthenia, Gr≥3 (60 mg QD n = 5) | Blood bilirubin increased, All (60 mg QD n = 5) | Blood bilirubin increased, Gr≥3 (60 mg QD n = 5) | Blood creatinine increased, Gr≥3 (60 mg QD n = 5) | Hypokalemia, Gr≥3 (60 mg QD n = 5) | Hyponatremia, Gr≥3 (60 mg QD n = 5) | Nausea, Gr≥3 (60 mg QD n = 5) | Neutrophil count decreased, Gr≥3 (60 mg QD n = 5) | Pain in extremity, All (60 mg QD n = 5) | Pain in extremity, Gr≥3 (60 mg QD n = 5) | Platelet count decreased, Gr≥3 (60 mg QD n = 5) | Protein in urine, Gr≥3 (60 mg QD n = 5) | WBC decreased, Gr≥3 (60 mg QD n = 5) | ALT increased, Gr≥3 (80 mg QD n = 9) | AST increased, Gr≥3 (80 mg QD n = 9) | Abdominal distension, Gr≥3 (80 mg QD n = 9) | Appetite decreased, Gr≥3 (80 mg QD n = 9) | Asthenia, Gr≥3 (80 mg QD n = 9) | Blood bilirubin increased, Gr≥3 (80 mg QD n = 9) | Blood creatinine increased, Gr≥3 (80 mg QD n = 9) | Hypokalemia, Gr≥3 (80 mg QD n = 9) | Hyponatremia, Gr≥3 (80 mg QD n = 9) | Nausea, Gr≥3 (80 mg QD n = 9) | Pain in extremity, Gr≥3 (80 mg QD n = 9) | Protein in urine, All (80 mg QD n = 9) | Protein in urine, Gr≥3 (80 mg QD n = 9) | ALT increased, Gr≥3 (100 mg QD n = 20) | Abdominal distension, All (100 mg QD n = 20) | Abdominal distension, Gr≥3 (100 mg QD n = 20) | Appetite decreased, Gr≥3 (100 mg QD n = 20) | Asthenia, Gr≥3 (100 mg QD n = 20) | Blood bilirubin increased, Gr≥3 (100 mg QD n = 20) | Blood creatinine increased, Gr≥3 (100 mg QD n = 20) | Hypokalemia, All (100 mg QD n = 20) | Hypokalemia, Gr≥3 (100 mg QD n = 20) | Hyponatremia, Gr≥3 (100 mg QD n = 20) | Nausea, Gr≥3 (100 mg QD n = 20) | Pain in extremity, Gr≥3 (100 mg QD n = 20) | Protein in urine, Gr≥3 (100 mg QD n = 20) | Vomiting, Gr≥3 (100 mg QD n = 20) | AST increased, Gr≥3 (120 mg QD n = 4) | Abdominal distension, All (120 mg QD n = 4) | Abdominal distension, Gr≥3 (120 mg QD n = 4) | Appetite decreased, Gr≥3 (120 mg QD n = 4) | Asthenia, Gr≥3 (120 mg QD n = 4) | Blood creatinine increased, Gr≥3 (120 mg QD n = 4) | Hypokalemia, All (120 mg QD n = 4) | Hypokalemia, Gr≥3 (120 mg QD n = 4) | Hyponatremia, All (120 mg QD n = 4) | Hyponatremia, Gr≥3 (120 mg QD n = 4) | Nausea, Gr≥3 (120 mg QD n = 4) | Neutrophil count decreased, Gr≥3 (120 mg QD n = 4)
1 (5.0) n (%): AST increased, Gr≥3 (100 mg QD n = 20) | Platelet count decreased, Gr≥3 (100 mg QD n = 20) | WBC decreased, Gr≥3 (100 mg QD n = 20)
2 (50.0) n (%): ALT increased, All (120 mg QD n = 4) | AST increased, All (120 mg QD n = 4) | Asthenia, All (120 mg QD n = 4) | Blood bilirubin increased, All (120 mg QD n = 4)
2 (10.0) n (%): Blood creatinine increased, All (100 mg QD n = 20) | Hyponatremia, All (100 mg QD n = 20) | Neutrophil count decreased, Gr≥3 (100 mg QD n = 20) | Pain in extremity, All (100 mg QD n = 20) | Protein in urine, All (100 mg QD n = 20)
3 (75.0) n (%): Anemia (incl. hemoglobin decreased), All (120 mg QD n = 4)
4 (44.4) n (%): Nausea, All (80 mg QD n = 9) | Neutrophil count decreased, All (80 mg QD n = 9) | Platelet count decreased, All (80 mg QD n = 9)
9 (45.0) n (%): WBC decreased, All (100 mg QD n = 20)
2 (40.0) n (%): Platelet count decreased, All (60 mg QD n = 5) | WBC decreased, All (60 mg QD n = 5)
2 (22.2) n (%): AST increased, All (80 mg QD n = 9) | Asthenia, All (80 mg QD n = 9) | Blood bilirubin increased, All (80 mg QD n = 9) | Blood creatinine increased, All (80 mg QD n = 9) | Pain in extremity, All (80 mg QD n = 9) | Platelet count decreased, Gr≥3 (80 mg QD n = 9)
1 (25.0) n (%): ALT increased, Gr≥3 (120 mg QD n = 4) | Anemia (incl. hemoglobin decreased), Gr≥3 (120 mg QD n = 4) | Appetite decreased, All (120 mg QD n = 4) | Blood bilirubin increased, Gr≥3 (120 mg QD n = 4) | Blood creatinine increased, All (120 mg QD n = 4) | Nausea, All (120 mg QD n = 4) | Neutrophil count decreased, All (120 mg QD n = 4) | Pain in extremity, All (120 mg QD n = 4)
